Here are results for twelve compounds from US20240360134A1, “PYRAZOLOPYRIMIDINES AND THEIR USES AS PDGFR INHIBITORS” (priority 2021, published 2024).

One assay addresses PDGFRβ (Rattus norvegicus (Rat), UniProt Q05030). The assay can be described thus: PDGFRβ Cellular Assay (PDGFRb P-Y751 HTRF, PDGF-BB stimulated A10 cells). Type of assay: cell-based. As for the experimental part:
Cell Culture and Preparation: Cells are cultured according to ATCC procedure (5) with the addition of the antibiotic penicillin-streptomycin. If working from frozen, cells should be thawed according to ATCC procedure. Depending on the cell density of frozen vial, cells will need time to recover from thaw. An 80% confluent T75 flask should be enough for one 384 well plate.
Stock Solutions: Rat PDGFBB. A 100 ug/mL stock is prepared by reconstituting 50 ug in 500 μL of 4 mM HCl and 0.1% BSA. It can be stored for a month at 4° C., or aliquoted out and frozen in the −20/−80° C. to avoid multiple free-thaw cycles.
1× Cisbio cell lysis buffer. The cell lysis buffer is diluted 4-fold with molecular grade water. The blocking agent is then diluted 25-fold in the diluted lysis buffer.
Antibody solutions. Equal amounts d2 and cryptate antibody are diluted 20-fold in detection buffer.
Rat PDGFBB. A working stock of 100 ng/mL is created from the stock solution in 10% FBS culture media.
Step 1: Plating Cells: Media from the A10 cell flask is aspirated. The cells are rinsed with PBS and then trypsinized to disperse the cell layer. The cells are then pelleted are resuspended to 1.25e5 cells/mL. […] Plates are covered and placed in the incubator (37° C. 5% CO2) overnight to allow cells to adhere.
Step 2: Compound Dispense: Approximately 18 hours after plating, dispense 40 nL compound onto cells using Echo. […] The plate is returned to the incubator for 3 hours.
After 10 minutes the media is removed by flicking the plate.
Step 4: Cell lysis and antibody addition: 20 uL lysis buffer per well is added to the plate via Tempest. 5 uL antibody solution is added per well via the Tempest. The plate is placed on the shaker at 230 rpm for 1 hour at room temperature.
Step 5: Detection: The plate is read using the HTRF module on the BMG Pherastar. Data is analyzed using Genedata Screener.
IC50 values are determined from a 4-parameter fit, using the following equation: Y=Bottom+(Top−Bottom)/(1+10((Log IC50−X)*Hill slope)), where X=log10 of the compound concentration; top can be defined by PC; bottom defined by NC.

Another assay concerns the target VEGFR2, unphosphorylated (Homo sapiens (Human), UniProt P35968). The assay can be described thus: VEGFR ADP GLO assay. Format: biochemical. The settings on record: 5 nM VEGFR2, 1.2 mM ATP, 1 mg/mL Srctide, 180 min. As for the experimental part:
Assay buffer stock contains 50 mM HEPES pH7.5, 10 mM MgCl2, 0.01% Brij-35, and 1 mM EGTA.
Unphosphorylated VEGFR2. 52.6 μM in 50 mM Tris-HCl, pH 8.0, 50 mM NaCl, 5% Glycerol, 0.5 mM TCEP. Store at −80° C. in aliquots.
10 mg/mL srctide solution, prepared in Assay buffer (Assay buffer stock with 2 mM DTT, 0.1% Pluronic F-127, and 0.1 mg/mL ovalbumin). Sonicate 10 mg/ml Srctide solution for 10 minutes and then vacuum filter.
Assay buffer. Add DTT to 2 mM, Pluronic F-127 to 0.1% and ovalbumin to 0.1 mg/mL to Assay buffer stock.
2× kinase solution. Make a working solution of 10 nM unphosphorylated VEGFR2 in Assay buffer. Vacuum filter 2× kinase solution prior to running assay. Keep on ice until use.
2× substrate/ATP solution. Make a working solution of 2 mg/mL srctide and 2.4 mM ATP in Assay buffer. Keep on ice until use.
Step 1. Dispensing inhibitors/controls: Using Echo, dispense 10 nL/well compound serial dilutions in DMSO to columns 1-22 (in 384-well plates) or columns 1-44 (in 1536-well plates). Dilution series=11 pt, 3-fold dilutions. The top compound concentration in the source plate is 4 mM. The top compound concentration in the assay plate is 10 uM. Using Echo, dispense 10 nl/well DMSO to column 23 (in 384-well plates) or columns 45-47 (in 1536-well plates). These wells will serve as negative control wells Using Echo, dispense 10 nl/well 400 uM TAK-593 in DMSO to column 24 (in 384-well plates) or column 48 (in 1536-well plates). The final concentration of TAK-593 in the assay should be 1 uM. These wells will serve as positive control wells.
Step 2. Pre-incubation of inhibitors with kinase: Add 2 μL/well 2× kinase solution. Centrifuge at 1000 rpm for 1 min. Incubate at room temperature for 30 min.
Step 3. Kinase cascade reaction: Add 2 μL/well 2× substrate/ATP solution to initiate kinase reactions. Centrifuge at 1000 rpm for 1 min. Incubate at room temperature for 180 min.
Final concentrations of components in the assay:
Step 4. Quench: Add 2 uL/well ADP Glo Reagent+0.05% CHAPS. Centrifuge at 1000 rpm for 1 min; Incubate at room temperature for one hour.
Step 5. Detection: Add 2 uL/well Kinase Detection Reagent+0.05% CHAPS. Centrifuge at 1000 rpm for 1 min; Incubate at room temperature for 1 hour; Read Luminescence on a plate reader.
% Inhibition: % Inhibition=(NC−sample)/(NC−PC)*100 where NC is the mean of negative control (reactions without inhibitor), and PC is the mean of positive control (1 μM TAK-593).
IC50 values are determined from a 4-parameter fit, using the following equation: Y=Bottom+(Top−Bottom)/(1+10^(Log IC50-X)*Hill Slope), where X=log10 of the compound concentration; top can be defined by PC; bottom defined by NC.
Background: ADP-Glo first removes unused ATP, then detects ADP through luciferase.

The structures appear in SMILES notation. Like-named read-outs stand apart in the source and are kept apart here.

Sequence of PDGFRβ (Q05030 whole entry, looked up): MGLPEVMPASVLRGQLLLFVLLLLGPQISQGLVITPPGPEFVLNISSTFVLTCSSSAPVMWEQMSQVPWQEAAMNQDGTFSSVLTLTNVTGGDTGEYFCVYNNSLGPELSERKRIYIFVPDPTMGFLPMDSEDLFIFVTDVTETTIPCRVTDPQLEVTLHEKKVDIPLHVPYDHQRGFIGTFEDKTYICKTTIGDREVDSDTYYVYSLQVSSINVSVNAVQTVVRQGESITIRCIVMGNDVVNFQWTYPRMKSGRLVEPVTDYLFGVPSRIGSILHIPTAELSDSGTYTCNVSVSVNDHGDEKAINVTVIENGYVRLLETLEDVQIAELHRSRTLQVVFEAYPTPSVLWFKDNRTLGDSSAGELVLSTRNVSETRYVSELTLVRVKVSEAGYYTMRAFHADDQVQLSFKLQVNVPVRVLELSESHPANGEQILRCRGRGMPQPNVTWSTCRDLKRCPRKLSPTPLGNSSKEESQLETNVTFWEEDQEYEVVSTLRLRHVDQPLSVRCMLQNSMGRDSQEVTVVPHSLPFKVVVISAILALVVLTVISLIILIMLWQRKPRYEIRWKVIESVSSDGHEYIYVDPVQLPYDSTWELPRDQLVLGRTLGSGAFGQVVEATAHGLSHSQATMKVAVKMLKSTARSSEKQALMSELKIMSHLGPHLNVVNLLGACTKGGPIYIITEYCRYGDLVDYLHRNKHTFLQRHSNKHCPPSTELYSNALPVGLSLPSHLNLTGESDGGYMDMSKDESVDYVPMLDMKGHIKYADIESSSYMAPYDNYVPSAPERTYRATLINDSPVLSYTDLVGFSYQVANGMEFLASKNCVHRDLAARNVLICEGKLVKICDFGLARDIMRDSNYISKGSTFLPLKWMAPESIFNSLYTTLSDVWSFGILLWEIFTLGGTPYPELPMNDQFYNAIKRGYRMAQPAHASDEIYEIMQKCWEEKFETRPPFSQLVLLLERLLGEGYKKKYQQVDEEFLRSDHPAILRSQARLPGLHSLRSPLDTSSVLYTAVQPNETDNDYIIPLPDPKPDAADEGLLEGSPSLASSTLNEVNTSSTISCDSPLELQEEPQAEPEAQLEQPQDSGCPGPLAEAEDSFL
Sequence of VEGFR2, unphosphorylated (P35968 whole entry, looked up): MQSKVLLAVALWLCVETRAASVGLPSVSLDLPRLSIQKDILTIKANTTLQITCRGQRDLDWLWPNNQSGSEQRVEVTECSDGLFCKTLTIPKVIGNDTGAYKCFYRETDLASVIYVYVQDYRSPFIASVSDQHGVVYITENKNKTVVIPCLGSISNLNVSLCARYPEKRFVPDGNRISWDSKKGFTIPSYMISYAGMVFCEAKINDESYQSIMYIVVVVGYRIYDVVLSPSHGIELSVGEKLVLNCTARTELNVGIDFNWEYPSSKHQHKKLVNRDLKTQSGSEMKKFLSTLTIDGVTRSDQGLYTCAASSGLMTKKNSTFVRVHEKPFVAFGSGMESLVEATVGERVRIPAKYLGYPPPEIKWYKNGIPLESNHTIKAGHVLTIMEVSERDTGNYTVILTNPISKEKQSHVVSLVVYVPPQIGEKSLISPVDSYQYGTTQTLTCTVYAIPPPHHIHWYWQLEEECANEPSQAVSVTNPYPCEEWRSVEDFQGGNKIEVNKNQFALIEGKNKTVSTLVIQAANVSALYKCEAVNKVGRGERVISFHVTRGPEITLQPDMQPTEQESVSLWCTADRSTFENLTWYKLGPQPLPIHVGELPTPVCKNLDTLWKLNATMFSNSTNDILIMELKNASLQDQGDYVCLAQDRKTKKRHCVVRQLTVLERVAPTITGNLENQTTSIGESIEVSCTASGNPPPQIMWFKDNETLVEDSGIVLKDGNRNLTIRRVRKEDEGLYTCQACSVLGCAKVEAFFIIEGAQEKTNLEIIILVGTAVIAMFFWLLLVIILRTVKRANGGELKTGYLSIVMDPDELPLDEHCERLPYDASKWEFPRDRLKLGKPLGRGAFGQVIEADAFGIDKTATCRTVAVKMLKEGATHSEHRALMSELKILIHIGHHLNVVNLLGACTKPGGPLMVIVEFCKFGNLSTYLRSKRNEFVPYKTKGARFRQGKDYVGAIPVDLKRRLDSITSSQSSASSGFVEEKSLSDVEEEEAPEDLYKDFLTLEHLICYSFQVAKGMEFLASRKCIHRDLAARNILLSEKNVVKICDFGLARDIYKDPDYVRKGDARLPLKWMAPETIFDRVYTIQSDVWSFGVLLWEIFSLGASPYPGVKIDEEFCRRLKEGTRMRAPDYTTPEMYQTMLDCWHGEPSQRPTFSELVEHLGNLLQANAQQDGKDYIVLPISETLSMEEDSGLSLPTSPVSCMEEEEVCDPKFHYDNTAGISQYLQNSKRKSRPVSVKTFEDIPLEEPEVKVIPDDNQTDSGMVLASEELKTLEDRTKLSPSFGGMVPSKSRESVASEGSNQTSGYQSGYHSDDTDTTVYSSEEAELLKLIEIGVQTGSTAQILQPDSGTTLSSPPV

By IC50 is commonly meant the concentration that inhibits the measured activity by half. With `Cc1ncc(C(=O)NCCN2CC3COCC3C2)cc1Nc1nn(C)c2nc(Nc3cnn(C)c3)ncc12` (stereo not drawn) [Example 26, 6-methyl-5-((1-methyl-6-((1-methyl-1H-pyrazol-4-yl)amino)-1H-pyrazolo[3,4-d]pyrimidin-3-yl)amino)-N-(2-(tetrahydro-1H-furo[3,4-c]pyrrol-5(3H)-yl)ethyl)nicotinamide], the IC50 is 92.5 nM against PDGFRβ and more than 7500 nM against VEGFR2, unphosphorylated.
Taken in the same sequence, the figures for `Cc1ncc(C(=O)NCCN2CCC3(CCO3)CC2)cc1Nc1nn(C)c2nc(Nc3cnn(C)c3)ncc12` [Example 19, N-(2-(1-oxa-7-azaspiro[3.5]nonan-7-yl)ethyl)-6-methyl-5-((1-methyl-6-((1-methyl-1H-pyrazol-4-yl)amino)-1H-pyrazolo[3,4-d]pyrimidin-3-yl)amino)nicotinamide] were 56 nM and more than 7500 nM.
In the case of `Cc1ncc(C(=O)NCCN(C)C2CCOCC2)cc1Nc1nn(C)c2nc(Nc3cnn(C)c3)ncc12` [Example 21, 6-methyl-N-(2-(methyl(tetrahydro-2H-pyran-4-yl)amino)ethyl)-5-((1-methyl-6-((1-methyl-1H-pyrazol-4-yl)amino)-1H-pyrazolo[3,4-d]pyrimidin-3-yl)amino)nicotinamide], the IC50 against PDGFRβ is 66.3 nM; against VEGFR2, unphosphorylated, more than 7500 nM.
With `Cc1ncc(C(=O)NCCN2CC[C@@H](C)C2)cc1Nc1nn(C)c2nc(Nc3cncnc3)ncc12` [Example 59, (R)-6-methyl-5-((1-methyl-6-(pyrimidin-5-ylamino)-1H pyrazolo-[3,4-d]pyrimidin-3-yl)amino)-N-(2-(3-methylpyrrolidin-1-yl)ethyl)nicotinamide], the IC50 at PDGFRβ (A10 cells, 3 hours compound, 15 ng/mL PDGFbb for 10 minutes, read-out: PDGFR Cellular IC50) was 190 nM; against VEGFR2, unphosphorylated it was more than 7500 nM.
Consider `Cc1ncc(C(=O)NCCN2CCS(=O)(=O)CC2)cc1Nc1nn(C)c2nc(Nc3cnn(C)c3)ncc12` [Example 23, N-(2-(1,1-dioxidothiomorpholino)ethyl)-6-methyl-5-((1-methyl-6-((1-methyl-1H-pyrazol-4-yl)amino)-1H-pyrazolo[3,4-d]pyrimidin-3-yl)amino)nicotinamide], for which the IC50 against PDGFRβ is 294 nM; on VEGFR2, unphosphorylated, more than 7500 nM.
Take `Cc1ncc(C(=O)NCCN2CCCC23CC3)cc1Nc1nn(C)c2nc(Nc3cnn(C)c3)ncc12` [Example 53, N-(2-(4-azaspiro[2.4]heptan-4-yl)ethyl)-6-methyl-5-((1-methyl-6-((1-methyl-1H-pyrazol-4-yl)amino)-1H-pyrazolo[3,4-d]pyrimidin-3-yl)amino)nicotinamide]: the half-maximal inhibitory concentration (IC50) against PDGFRβ was found to be 6.2 nM; against VEGFR2, unphosphorylated it was 4270 nM.
For `Cn1nc(Nc2cc(C(=O)NCCN3CCCC3(C)C)ccc2F)c2cnc(Nc3ccnnc3)nc21` [Example 50, N-(2-(2,2-dimethylpyrrolidin-1-yl)ethyl)-4-fluoro-3-((1-methyl-6-(pyridazin-4-ylamino)-1H-pyrazolo[3,4-d]pyrimidin-3-yl)amino)benzamide], in that order: 45.8 nM and more than 7500 nM.
Taken in the same sequence, the figures for `Cc1ncc(C(=O)NCCN2CCC3(CCC3)C2)cc1Nc1nn(C)c2nc(Nc3cnn(C)c3)ncc12` [Example 83, N-(2-(6-azaspiro[3.4]octan-6-yl)ethyl)-6-methyl-5-((1-methyl-6-((1-methyl-1H-pyrazol-4-yl)amino)-1H-pyrazolo[3,4-d]pyrimidin-3-yl)amino)nicotinamide] were 26.2 nM and more than 7500 nM.
On to `Cc1ncc(C(=O)NCCN2CCOC3(CC3)C2)cc1Nc1nn(C)c2nc(Nc3cnn(C)c3)ncc12` [Example 54, N-(2-(4-oxa-7-azaspiro[2.5]octan-7-yl)ethyl)-6-methyl-5-((1-methyl-6-((1-methyl-1H-pyrazol-4-yl)amino)-1H-pyrazolo[3,4-d]pyrimidin-3-yl)amino)nicotinamide], for which the IC50 against PDGFRβ was determined as 36.3 nM; against VEGFR2, unphosphorylated, 4730 nM.
For `Cc1ncc(C(=O)NCCN2CCC3(CC2)COC3)cc1Nc1nn(C)c2nc(Nc3cnn(C)c3)ncc12` [Example 20, N-(2-(2-oxa-7-azaspiro[3.5]nonan-7-yl)ethyl)-6-methyl-5-((1-methyl-6-((1-methyl-1H-pyrazol-4-yl)amino)-1H-pyrazolo[3,4-d]pyrimidin-3-yl)amino)nicotinamide], in that order: 168 nM and more than 7500 nM.
Taken in the same sequence, the figures for `Cc1ncc(C(=O)NCCN2CCOCC23CC3)cc1Nc1nn(C)c2nc(Nc3cnn(C)c3)ncc12` [Example 24, N-(2-(7-oxa-4-azaspiro[2.5]octan-4-yl)ethyl)-6-methyl-5-((1-methyl-6-((1-methyl-1H-pyrazol-4-yl)amino)-1H-pyrazolo[3,4-d]pyrimidin-3-yl)amino)nicotinamide] were 22.1 nM and more than 7500 nM.
Consider `COCC1CCCN1CCNC(=O)c1cnc(C)c(Nc2nn(C)c3nc(Nc4cnn(C)c4)ncc23)c1` (stereo not drawn) [Example 25, N-(2-(2-(methoxymethyl)pyrrolidin-1-yl)ethyl)-6-methyl-5-((1-methyl-6-((1-methyl-1H-pyrazol-4-yl)amino)-1H-pyrazolo[3,4-d]pyrimidin-3-yl)amino)nicotinamide], for which the 50% inhibitory concentration (IC50) was 12.9 nM on PDGFRβ and more than 7500 nM on VEGFR2, unphosphorylated.
